Here are results for 31 molecules from patent US10954216B2, “BMP-signal-inhibiting compound” (RIKEN, priority 2016, dated 2021).

Usually IC50 stands for the point on the concentration scale where inhibition reaches its midpoint.

Counter-ions that a name gives are not always drawn.

This experiment concerns BMP signal in MDA-231-D-BREFluc/Rluc cells. Kind of experiment: BMP signal inhibitory effect (AlphaScreen SureFire SMAD1 p-Ser463/465, BMP-6 stimulation). To be noted: BMP-6 stimulated MDA-231-D-BREFluc/Rluc cells, phospho-SMAD1 AlphaScreen; read-out: IC50. Type of experiment: cell-based. The procedure: BMP Signal Inhibitory Effect
A BMP signal inhibitory activity of a compound of the present invention was evaluated according to the following method.
MDA-231-D-BREFluc/Rluc cells prepared according to the method described in Y. Katsuno et al., Oncogene, 27, 6322 (2008) were incubated at 37° C. for 2 hours together with test compounds, and BMP-6 (commercially available from R&D System, 507-BM-020) was then added thereto, and the mixture was additionally incubated at 37° C. for 30 minutes. A Lysis Buffer and Acceptor mix of AlphaScreen SureFire SMAD1 (p-Ser463/465) assay kit (commercially available from Perkin Elmer, TGRSM1S10K) were sequentially added thereto, the mixture was incubated at room temperature for 2 hours, and AlphaScreen Protein A kit (commercially available from Perkin Elmer, 6760617) was then added thereto, and standard AlphaScreen settings of Alpha Technology—compatible plate reader (commercially available from Perkin Elmer, EnSpire) was used for measurement.
For orientation: Alpha assays give light when donor and acceptor beads are brought close together.
On to `CCn1cc(-c2ccnc(Nc3ccc(N4CCN(CCOC)CC4)c(F)c3)n2)c(-c2cccnc2)n1` [Example 18, 4-(1-Ethyl-3-(pyridin-3-yl)-1H-pyrazol-4-yl)-N-(3-fluoro-4-(4-(2-methoxyethyl)piperazin-1-yl)phenyl)pyrimidin-2-amine], for which the IC50 turned out to be 30.8 nM.

As for `CCn1cc(-c2ccnc(Nc3ccc(N4CCC(N5CCN(C)CC5)CC4)cc3)n2)c(-c2cccnc2)n1` [Example 20], the IC50 was found to be 11.8 nM. Under `CCn1cc(-c2ccnc(Nc3ccc(N4CCC5(CC4)CN(C(C)=O)C5)cc3)n2)c(-c2cccnc2)n1` [Example 21, 1-(7-(4-((4-(1-ethyl-3-(pyridin-3-yl)-1H-pyrazol-4-yl)pyrimidin-2-yl)amino)phenyl)-2,7-diazaspiro[3.5]nonan-2-yl)ethan-1-one] stands 39 nM; under `CCn1cc(-c2ccnc(Nc3ccc(N4CCOCC4)cc3)n2)c(-c2cccnc2)n1` [Example 22, 4-(1-ethyl-3-(pyridin-3-yl)-1H-pyrazol-4-yl)-N-(4-morpholinophenyl)pyrimidin-2-amine], 19 nM; under `CCn1cc(-c2ccnc(Nc3cccc(OCCN(C)C)c3)n2)c(-c2cccnc2)n1` [Example 24, N-(3-(2-(dimethylamino)ethoxy)phenyl)-4-(1-ethyl-3-(pyridin-3-yl)-1H-pyrazol-4-yl)pyrimidin-2-amine], 5.3 nM. Under `CCn1cc(-c2ccnc(Nc3ccc(-n4cnc(C)n4)cc3)n2)c(-c2cccnc2)n1` [Example 26, 4-(1-ethyl-3-(pyridin-3-yl)-1H-pyrazol-4-yl)-N-(4-(3-methyl-1H-1,2,4-triazol-1-yl)phenyl)pyrimidin-2-amine] stands 18.5 nM; under `CCn1cc(-c2ccnc(Nc3ccc(-c4cnn(CCOC)c4)cc3)n2)c(-c2cccnc2)n1` [Example 28, 4-(1-Ethyl-3-(pyridin-3-yl)-1H-pyrazol-4-yl)-N-(4-(1-(2-methoxyethyl)-1H-pyrazol-4-yl)phenyl)pyrimidin-2-amine], 24.6 nM.

`CCn1cc(-c2ccnc(Nc3ccc(-c4cn[nH]c4)cc3)n2)c(-c2cccnc2)n1` [Example 30, N-(4-(1H-pyrazol-4-yl)phenyl)-4-(1-ethyl-3-(pyridin-3-yl)-1H-pyrazol-4-yl)pyrimidin-2-amine]: the IC50 was found to be 32.9 nM.

On to `CCn1cc(-c2ccnc(Nc3ccc(N4CCN(CC(=O)N5CCCCC5)CC4)cc3)n2)c(-c2cccnc2)n1` [Example 31, 2-(4-(4-((4-(1-Ethyl-3-(pyridin-3-yl)-1H-pyrazol-4-yl)pyrimidin-2-yl)amino)phenyl)piperazin-1-yl)-1-(piperidin-1-yl)ethan-1-one], for which the IC50 stood at 19.7 nM. To `CCn1cc(-c2ccnc(Nc3ccc(N4CCN(C5CC5)CC4)cc3)n2)c(-c2cccnc2)n1` [Example 32, N-(4-(4-cyclopropylpiperazin-1-yl)phenyl)-4-(1-ethyl-3-(pyridin-3-yl)-1H-pyrazol-4-yl)pyrimidin-2-amine] belongs 21.3 nM. To `CCn1cc(-c2ccnc(Nc3cccc(N4CCN(C)CC4)c3)n2)c(-c2cccnc2)n1` [Example 34, 4-(1-ethyl-3-(pyridin-3-yl)-1H-pyrazol-4-yl)-N-(3-(4-methylpiperazin-1-yl)phenyl)pyrimidin-2-amine] belongs 17.3 nM.

Turning to `COCCn1cc(-c2ccnc(Nc3ccc(N4CCN(C)CC4)cc3)n2)c(-c2cccnc2)n1` [Example 35, 4-(1-(2-methoxyethyl)-3-(pyridin-3-yl)-1H-pyrazol-4-yl)-N-(4-(4-methylpiperazin-1-yl)phenyl)pyrimidin-2-amine], the IC50 amounted to 22.5 nM. Under `COCCn1cc(-c2ccnc(Nc3ccc(N4CCN(CC5CC5)CC4)cc3)n2)c(-c2cccnc2)n1` [Example 36, N-(4-(4-(Cyclopropylmethyl)piperazin-1-yl)phenyl)-4-(1-(2-methoxyethyl)-3-(pyridin-3-yl)-1H-pyrazole-4-yl)pyrimidin-2-amine] stands 15.9 nM; under `CCn1cc(-c2ccnc(Nc3ccc(-n4nc(C)nc4C)cc3)n2)c(-c2cccnc2)n1` [Example 39, N-(4-(3,5-dimethyl-1H-1,2,4-triazol-1-yl)phenyl)-4-(1-ethyl-3-(pyridin-3-yl)-1H-pyrazol-4-yl)pyrimidin-2-amine], 11.2 nM. Under `CCn1cc(-c2ccnc(Nc3cccc(CN(C)C)c3)n2)c(-c2cccnc2)n1` [Example 40, N-(3-((dimethylamino)methyl)phenyl)-4-(1-ethyl-3-(pyridin-3-yl)-1H-pyrazol-4-yl)pyrimidin-2-amine] stands 5 nM. Under `CCn1cc(-c2ccnc(Nc3ccc(Cn4cncn4)cc3)n2)c(-c2cccnc2)n1` [Example 42, N-(4-((1H-1,2,4-Triazol-1-yl)methyl)phenyl)-4-(1-ethyl-3-(pyridin-3-yl)-1H-pyrazol-4-yl)pyrimidin-2-amine] stands 36.9 nM. For the molecule `CCn1cc(-c2ccnc(Nc3ccc(CCN4CCN(CCOC)CC4)cc3)n2)c(-c2cccnc2)n1` [Example 43, 4-(1-ethyl-3-(pyridin-3-yl)-1H-pyrazol-4-yl)-N-(4-(2-(4-(2-methoxyethyl)piperazin-1-yl)ethyl)phenyl)pyrimidin-2-amine], the IC50 was determined as 5.2 nM.

As for `CCn1cc(-c2ccnc(Nc3ccc(-n4ccnc4)cc3)n2)c(-c2cccnc2)n1` [Example 44, N-(4-(1H-Imidazol-1-yl)phenyl)-4-(1-ethyl-3-(pyridin-3-yl)-1H-pyrazol-4-yl)pyrimidin-2-amine], the IC50 stood at 14.5 nM. To `CCn1cc(-c2ccnc(Nc3ccc(C4CCN(C)CC4)c(F)c3)n2)c(-c2cccnc2)n1` [Example 45, 4-(1-ethyl-3-(pyridin-3-yl)-1H-pyrazol-4-yl)-N-(3-fluoro-4-(1-methylpiperidin-4-yl)phenyl)pyrimidin-2-amine] belongs 12.1 nM; to `CCn1cc(-c2ccnc(Nc3ccc(N4CCN(C)CC4)c(OC)c3)n2)c(-c2cccnc2)n1` [Example 47, 4-(1-ethyl-3-(pyridin-3-yl)-1H-pyrazol-4-yl)-N-(3-methoxy-4-(4-methylpiperazin-1-yl)phenyl)pyrimidin-2-amine], 10.2 nM. To `CCn1cc(-c2ccnc(Nc3cnn(C4CN(CC(C)(C)O)C4)c3)n2)c(-c2cccnc2)n1` [Example 48, 1-(3-(4-((4-(1-Ethyl-3-(pyridin-3-yl)-1H-pyrazol-4-yl)pyrimidin-2-yl)amino)-1H-pyrazol-1-yl)azetidin-1-yl)-2-methylpropan-2-ol] belongs 21.2 nM. To `CCn1cc(-c2ccnc(Nc3ccc(C4CCN(CCOC)C4)cc3)n2)c(-c2cccnc2)n1` (stereo not shown) [Example 50, 4-(1-ethyl-3-(pyridin-3-yl)-1H-pyrazol-4-yl)-N-(4-(1-(2-methoxyethyl)pyrrolidin-3-yl)phenyl)pyrimidin-2-amine] belongs 6.3 nM; to `CCn1cc(-c2ccnc(Nc3ccc(N4CCN(CCOCC(F)F)CC4)cc3)n2)c(-c2cccnc2)n1` [Example 51, N-(4-(4-(2-(2,2-difluoroethoxy)ethyl)piperazin-1-yl)phenyl)-4-(1-ethyl-3-(pyridin-3-yl)-1H-pyrazol-4-yl)pyrimidin-2-amine], 18.3 nM. Take `CCn1cc(-c2ccnc(Nc3ccc(N4CCN(CCOCC5CC5)CC4)cc3)n2)c(-c2cccnc2)n1` [Example 52, N-(4-(4-(2-(Cyclopropylmethoxy)ethyl)piperazin-1-yl)phenyl)-4-(1-ethyl-3-(pyridin-3-yl)-1H-pyrazol-4-yl)Pyrimidin-2-amine]: the IC50 is 13.3 nM. Under `CCn1cc(-c2ccnc(Nc3cnn(C4CCOCC4)c3)n2)c(-c2cccnc2)n1` [Example 53, 4-(1-ethyl-3-(pyridin-3-yl)-1H-pyrazol-4-yl)-N-(1-(tetrahydro-2H-pyran-4-yl)-1H-pyrazol-4-yl)pyrimidin-2-amine] stands 22 nM. Under `CCn1cc(-c2ccnc(Nc3cnn(C4CCN(CC(C)(C)O)CC4)c3)n2)c(-c2cccnc2)n1` [Example 54, 1-(4-(4-((4-(1-Ethyl-3-(pyridin-3-yl)-1H-pyrazol-4-yl)pyrimidin-2-yl)amino)-1H-pyrazol-1-yl)piperidin-1-yl)-2-methylpropan-2-ol] stands 8.2 nM; under `CCn1cc(-c2ccnc(Nc3cnn(C4CCN(CCOC)CC4)c3)n2)c(-c2cccnc2)n1` [Example 55, 4-(1-ethyl-3-(pyridin-3-yl)-1H-pyrazol-4-yl)-N-(1-(1-(2-methoxyethyl)piperidin-4-yl)-1H-pyrazol-4-yl)pyrimidin-2-amine oxalate], 21.6 nM; under `CCn1cc(-c2ccnc(Nc3ccc(-c4nnc(C)s4)cc3)n2)c(-c2cccnc2)n1` [Example 56, 4-(1-Ethyl-3-(pyridin-3-yl)-1H-pyrazol-4-yl)-N-(4-(5-methyl-1,3,4-thiadiazol-2-yl)phenyl)pyrimidin-2-amine], 17.6 nM. Under `COCCN1CCC(c2ccc(Nc3nccc(-c4cn(CCOC)nc4-c4cccnc4)n3)cc2)CC1` [Example 57, 4-(1-(2-methoxyethyl)-3-(pyridin-3-yl)-1H-pyrazol-4-yl)-N-(4-(1-(2-methoxyethyl)piperidin-4-yl)phenyl)pyrimidin-2-amine] stands 13 nM; under `CCn1cc(-c2ccnc(Nc3ccc(C4CCN(CCOC)CC4)cc3)n2)c(-c2cccnc2)n1` [Example 58, 4-(1-ethyl-3-(pyridin-3-yl)-1H-pyrazol-4-yl)-N-(4-(1-(2-methoxyethyl)piperidin-4-yl)phenyl)pyrimidin-2-amine], 4.4 nM. `CCn1cc(-c2ccnc(Nc3ccc(C4CCN(C(=O)CO)CC4)cc3)n2)c(-c2cccnc2)n1` [Example 59, 1-(4-(4-((4-(1-ethyl-3-(pyridin-3-yl)-1H-pyrazol-4-yl)pyrimidin-2-yl)amino)phenyl)piperidin-1-yl)-2-hydroxyethan-1-one]: the IC50 turned out to be 25.2 nM.
